Measurements as given in patent EP4700095A1, “INK COMPOSITION FOR INK-JET PRINTING” (Sakata INX Corporation, priority 2023, dated 2024).

Test: SP value (solubility parameter) calculated by formula 1
Settings: 25°C (298 K), formula {(ΔH - RT)/(M/D)}^1/2

SP value | SMILES
11.3 (cal/cm^3)^1/2 | CC(O)COC(C)COC(C)CO (stereo not drawn) [Tripropylene glycol]
12.6 (cal/cm^3)^1/2 | CC(O)CO (stereo not drawn) [Propylene glycol, 1,2-propanediol]
14.9 (cal/cm^3)^1/2 | OCC(O)CO [Glycerin, glycerin]
